According to ChEMBL document CHEMBL1201862, “PubChem BioAssay data set” (2004):
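How tested: cells in 96-well plates exposed to compound for 48 hours at five concentrations. GI50 marks 50% less growth.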 Activity calls are given as the source filed them. Cut-off read from the data, not from the text of the source: active = GI50 up to about 1.1 µM and inactive = higher.

What was measured:
Experiment in all cases: inhibition of tumour cell growth, NCI panel, 48 h
[1] = tested on: 786-0
[2] = tested on: ACHN
[3] = tested on: CAKI-1
[4] = tested on: CCRF-CEM
[5] = tested on: COLO 205
[6] = tested on: DLD-1
[7] = tested on: DMS-114
[8] = tested on: DMS-273
[9] = tested on: EKVX
[10] = tested on: HCC 2998
[11] = tested on: HCT-15
[12] = tested on: HOP-18
[13] = tested on: HOP-62
[14] = tested on: HOP-92
[15] = tested on: HT-29
[16] = tested on: IGROV-1
[17] = tested on: K562
[18] = tested on: KM-20L2
[19] = tested on: KM12
[20] = tested on: LOX IMVI
[21] = tested on: LXFL 529
[22] = tested on: M14
[23] = tested on: M19-MEL
[24] = tested on: MOLT-4
[25] = tested on: Malme-3M
[26] = tested on: NCI-H226
[27] = tested on: NCI-H23
[28] = tested on: NCI-H460
[29] = tested on: NCI-H522
[30] = tested on: OVCAR-3
[31] = tested on: OVCAR-4
[32] = tested on: OVCAR-5
[33] = tested on: OVCAR-8
[34] = tested on: RPMI-8226
[35] = tested on: SF-295
[36] = tested on: SF-539
[37] = tested on: SK-MEL-28
[38] = tested on: SK-MEL-2
[39] = tested on: SK-MEL-5
[40] = tested on: SK-OV-3
[41] = tested on: SN12C
[42] = tested on: SNB-19
[43] = tested on: SNB-75
[44] = tested on: SNB-78
[45] = tested on: SR
[46] = tested on: SW-620
[47] = tested on: TK-10
[48] = tested on: U-251
[49] = tested on: UACC-257
[50] = tested on: UACC-62
[51] = tested on: UO-31
[52] = tested on: XF498

Nc1cc(O)nc(SC2=NC(N)CC(O)C2)n1 (configuration not stated)
GI50 [1]: > 100 µM (inactive)
GI50 [2]: > 100 µM (inactive)
GI50 [3]: > 100 µM (inactive)
GI50 [4]: > 100 µM (inactive)
GI50 [5]: > 100 µM (inactive)
GI50 [6]: > 100 µM (inactive)
GI50 [7]: > 100 µM (inactive)
GI50 [8]: > 100 µM (inactive)
GI50 [9]: > 100 µM (inactive)
GI50 [10]: > 100 µM (inactive)
GI50 [11]: > 100 µM
GI50 [12]: > 100 µM (inactive)
GI50 [13]: > 100 µM (inactive)
GI50 [14]: > 100 µM (inactive)
GI50 [15]: > 100 µM (inactive)
GI50 [16]: > 100 µM (inactive)
GI50 [17]: > 100 µM (inactive)
GI50 [18]: > 100 µM (inactive)
GI50 [19]: > 100 µM (inactive)
GI50 [20]: > 100 µM (inactive)
GI50 [21]: > 100 µM (inactive)
GI50 [22]: > 100 µM (inactive)
GI50 [23]: > 100 µM (inactive)
GI50 [24]: > 100 µM (inactive)
GI50 [25]: > 100 µM (inactive)
GI50 [26]: > 100 µM (inactive)
GI50 [27]: > 100 µM (inactive)
GI50 [28]: > 100 µM (inactive)
GI50 [29]: > 100 µM (inactive)
GI50 [30]: > 100 µM (inactive)
GI50 [31]: > 100 µM (inactive)
GI50 [32]: > 100 µM (inactive)
GI50 [33]: > 100 µM (inactive)
GI50 [34]: > 100 µM (inactive)
GI50 [35]: > 100 µM (inactive)
GI50 [36]: > 100 µM (inactive)
GI50 [37]: > 100 µM (inactive)
GI50 [38]: > 100 µM (inactive)
GI50 [39]: > 100 µM (inactive)
GI50 [40]: > 100 µM (inactive)
GI50 [41]: > 100 µM (inactive)
GI50 [42]: > 100 µM (inactive)
GI50 [43]: > 100 µM (inactive)
GI50 [44]: > 100 µM (inactive)
GI50 [45]: > 100 µM (inactive)
GI50 [46]: 42.5 µM (inactive)
GI50 [47]: > 100 µM (inactive)
GI50 [48]: > 100 µM (inactive)
GI50 [49]: > 100 µM (inactive)
GI50 [50]: > 100 µM (inactive)
GI50 [51]: > 100 µM (inactive)
GI50 [52]: > 100 µM (inactive)
